# Measured values from article PMC5218480 (PLoS ONE, 2017).
# System: MV-4-11 cells
# Assay: Gene expression microarray analysis (Affymetrix PrimeView) and GSEA
# Format: cell-based, human
# Set-up: RFU PODN (11730768_x_at) / Fold change /veh PODN (11730768_x_at) / RFU LINC00158 (11744669_a_at) / Fold change /veh LINC00158 (11744669_a_at) / RFU DUSP10 (11751237_a_at) / Fold change /veh DUSP10 (11751237_a_at) / RFU ID3 (11757404_x_at) / Fold change /veh ID3 (11757404_x_at) / RFU PLEKHG5 (11737974_s_at) / Fold change /veh PLEKHG5 (11737974_s_at) / RFU LRRC4B (11730491_at) / Fold change /veh LRRC4B (11730491_at) / RFU GIMAP4 (11747438_a_at) / Fold change /veh GIMAP4 (11747438_a_at) / RFU KRT8 (11758183_x_at) / Fold change /veh KRT8 (11758183_x_at) / RFU CNN1 (11734310_a_at) / Fold change /veh CNN1 (11734310_a_at) / RFU VPS37D (11726825_at) / Fold change /veh VPS37D (11726825_at) / RFU C10orf10 (11716522_x_at) / Fold change /veh C10orf10 (11716522_x_at) / RFU KIR2DL2 /// KIR2DL4 /// KIR2DL5A /// KIR2DL5B /// KIR2DS1 /// KIR2DS2 /// KIR2DS3 /// KIR2DS4 /// KIR3DL3 /// KIR3DL3 /// KIR3DS1 (11738374_at) / Fold change /veh KIR2DL2 /// KIR2DL4 /// KIR2DL5A /// KIR2DL5B /// KIR2DS1 /// KIR2DS2 /// KIR2DS3 /// KIR2DS4 /// KIR3DL3 /// KIR3DL3 /// KIR3DS1 (11738374_at) / RFU C1QL1 (11718748_at) / Fold change /veh C1QL1 (11718748_at) / RFU TMPRSS4 (11747572_a_at) / Fold change /veh TMPRSS4 (11747572_a_at) / RFU HAMP (11756126_x_at) / Fold change /veh HAMP (11756126_x_at) / RFU RNFT2 (11725882_a_at) / Fold change /veh RNFT2 (11725882_a_at) / RFU NR4A2 (11747474_a_at) / Fold change /veh NR4A2 (11747474_a_at) / RFU ABCC12 (11746883_a_at) / Fold change /veh ABCC12 (11746883_a_at) / RFU TMEM136 (11760407_x_at) / Fold change /veh TMEM136 (11760407_x_at) / RFU CLDN22 /// WWC2 (11732394_at) / Fold change /veh CLDN22 /// WWC2 (11732394_at) / RFU HLA-DPB1 (11760878_x_at) / Fold change /veh HLA-DPB1 (11760878_x_at) / RFU SPINT1 (11716480_a_at) / Fold change /veh SPINT1 (11716480_a_at) / RFU GAP43 (11754022_s_at) / Fold change /veh GAP43 (11754022_s_at) / RFU A4GNT (11735810_at) / Fold change /veh A4GNT (11735810_at) / RFU PRB3 (11715151_x_at) / Fold change /veh PRB3 (11715151_x_at) / RFU TUBB4B (11761932_at) / Fold change /veh TUBB4B (11761932_at) / RFU CAPN14 (11732068_a_at) / Fold change /veh CAPN14 (11732068_a_at) / RFU TMCC2 (11721928_a_at) / Fold change /veh TMCC2 (11721928_a_at) / RFU IRGQ (11745062_a_at) / Fold change /veh IRGQ (11745062_a_at) / RFU FAM174B (11720279_a_at) / Fold change /veh FAM174B (11720279_a_at) / RFU TMPRSS4 (11748680_a_at) / Fold change /veh TMPRSS4 (11748680_a_at) / RFU FAM212B (11763350_a_at) / Fold change /veh FAM212B (11763350_a_at) / RFU PLEKHG5 (11743358_a_at) / Fold change /veh PLEKHG5 (11743358_a_at) / RFU ZSCAN30 (11745921_a_at) / Fold change /veh ZSCAN30 (11745921_a_at) / RFU CMKLR1 (11741424_a_at) / Fold change /veh CMKLR1 (11741424_a_at) / RFU LOC101060620 /// MAPK8IP1 (11723275_at) / Fold change /veh LOC101060620 /// MAPK8IP1 (11723275_at) / RFU SPTSSB (11747773_x_at) / Fold change /veh SPTSSB (11747773_x_at) / RFU PRSS12 (11739890_at) / Fold change /veh PRSS12 (11739890_at) / RFU BIN1 (11741810_x_at) / Fold change /veh BIN1 (11741810_x_at) / RFU WNT11 (11732464_a_at) / Fold change /veh WNT11 (11732464_a_at) / RFU C10orf10 (11716521_a_at) / Fold change /veh C10orf10 (11716521_a_at) / RFU C5orf56 (11738089_at) / Fold change /veh C5orf56 (11738089_at) / RFU CYB561 (11721691_x_at) / Fold change /veh CYB561 (11721691_x_at) / RFU ANKRD19P (11752326_a_at) / Fold change /veh ANKRD19P (11752326_a_at) / RFU OR2T12 /// OR2T33 /// OR2T8 (11738714_s_at) / Fold change /veh OR2T12 /// OR2T33 /// OR2T8 (11738714_s_at) / RFU VCAN (11748164_a_at) / Fold change /veh VCAN (11748164_a_at) / RFU JSRP1 (11732532_at) / Fold change /veh JSRP1 (11732532_at) / RFU KRTAP10-11 (11738290_x_at) / Fold change /veh KRTAP10-11 (11738290_x_at) / RFU MYO3A (11730013_a_at) / Fold change /veh MYO3A (11730013_a_at) / RFU EBF3 (11725865_a_at) / Fold change /veh EBF3 (11725865_a_at) / RFU CAMK2N1 (11719241_x_at) / Fold change /veh CAMK2N1 (11719241_x_at) / RFU C5orf56 (11738088_a_at) / Fold change /veh C5orf56 (11738088_a_at) / RFU OLFML3 (11715873_a_at) / Fold change /veh OLFML3 (11715873_a_at) / RFU LOC100653217 /// NTM (11731650_a_at) / Fold change /veh LOC100653217 /// NTM (11731650_a_at) / RFU MAPK11 (11762145_a_at) / Fold change /veh MAPK11 (11762145_a_at) / RFU FIZ1 (11724087_x_at) / Fold change /veh FIZ1 (11724087_x_at) / RFU OASL (11726364_x_at) / Fold change /veh OASL (11726364_x_at) / RFU SOX15 (11748057_x_at) / Fold change /veh SOX15 (11748057_x_at) / RFU CD79A (11719716_a_at) / Fold change /veh CD79A (11719716_a_at) / RFU HIST1H1D (11736915_at) / Fold change /veh HIST1H1D (11736915_at) / RFU CASKIN2 (11723855_a_at) / Fold change /veh CASKIN2 (11723855_a_at) / RFU LOC730098 (11760151_x_at) / Fold change /veh LOC730098 (11760151_x_at) / RFU OR4N2 (11742367_at) / Fold change /veh OR4N2 (11742367_at) / RFU PRRT2 (11749266_a_at) / Fold change /veh PRRT2 (11749266_a_at) / RFU SNX32 (11753110_a_at) / Fold change /veh SNX32 (11753110_a_at) / RFU CDHR5 (11726645_a_at) / Fold change /veh CDHR5 (11726645_a_at) / RFU RCAN1 (11760418_a_at) / Fold change /veh RCAN1 (11760418_a_at) / RFU FAM167A (11723789_a_at) / Fold change /veh FAM167A (11723789_a_at) / RFU FAM26E (11764081_at) / Fold change /veh FAM26E (11764081_at) / RFU ISYNA1 (11749810_s_at) / Fold change /veh ISYNA1 (11749810_s_at) / RFU ACY1 (11761880_at) / Fold change /veh ACY1 (11761880_at) / RFU 11764098_at / Fold change /veh 11764098_at / RFU SAMD14 (11745864_x_at) / Fold change /veh SAMD14 (11745864_x_at) / RFU NPB (11741838_a_at) / Fold change /veh NPB (11741838_a_at) / RFU TMPRSS6 (11731388_a_at) / Fold change /veh TMPRSS6 (11731388_a_at) / RFU KRTAP10-2 (11738614_at) / Fold change /veh KRTAP10-2 (11738614_at) / RFU ARHGAP8 /// PRR5-ARHGAP8 (11727945_x_at) / Fold change /veh ARHGAP8 /// PRR5-ARHGAP8 (11727945_x_at) / RFU KRTAP5-7 /// NADSYN1 (11734609_at) / Fold change /veh KRTAP5-7 /// NADSYN1 (11734609_at) / RFU RASL12 (11751679_a_at) / Fold change /veh RASL12 (11751679_a_at) / RFU CDKN2B (11736163_a_at) / Fold change /veh CDKN2B (11736163_a_at) / RFU PRF1 (11729649_at) / Fold change /veh PRF1 (11729649_at) / RFU, ZNF638 /// ZNF638-IT1 / Fold change vs veh, ZNF638 /// ZNF638-IT1 / RFU, PANK3 / Fold change vs veh, PANK3 / RFU, SH3YL1 / Fold change vs veh, SH3YL1 / RFU, ZEB2 / Fold change vs veh, ZEB2 / RFU, NRIP1 / Fold change vs veh, NRIP1 / RFU, PTTG1IP / Fold change vs veh, PTTG1IP / RFU, CAPN2 / Fold change vs veh, CAPN2 / RFU, MED14 / Fold change vs veh, MED14 / RFU, SNORA58 / Fold change vs veh, SNORA58 / RFU, C1orf63 / Fold change vs veh, C1orf63 / RFU, LRRFIP1 / Fold change vs veh, LRRFIP1 / RFU, NDUFAF7 / Fold change vs veh, NDUFAF7 / RFU, SLC12A2 / Fold change vs veh, SLC12A2 / RFU, IBTK / Fold change vs veh, IBTK / RFU, ESF1 / Fold change vs veh, ESF1 / Fold change vs veh, TMEM50B / RFU, TAOK1 / Fold change vs veh, TAOK1 / RFU, ACBD3 / Fold change vs veh, ACBD3 / RFU, TMA16 / Fold change vs veh, TMA16 / RFU, RWDD3 / Fold change vs veh, RWDD3 / RFU, BCAT1 / Fold change vs veh, BCAT1 / RFU, EDEM3 / Fold change vs veh, EDEM3 / RFU, TMEM33 / Fold change vs veh, TMEM33 / RFU, WDR75 / Fold change vs veh, WDR75 / RFU, AHCTF1 / Fold change vs veh, AHCTF1 / RFU, TFRC / Fold change vs veh, TFRC / RFU, ZDHHC17 / Fold change vs veh, ZDHHC17 / RFU, NOM1 / Fold change vs veh, NOM1 / RFU, ARL8B / Fold change vs veh, ARL8B / RFU, ZBTB11 / Fold change vs veh, ZBTB11 / RFU, TAMM41 / Fold change vs veh, TAMM41 / RFU, KIAA1704 /// LOC100996395 / Fold change vs veh, KIAA1704 /// LOC100996395 / RFU, ING1 / Fold change vs veh, ING1 / RFU, TRMT61B / Fold change vs veh, TRMT61B / RFU, FUBP3 / Fold change vs veh, FUBP3 / RFU, TP53 / Fold change vs veh, TP53 / RFU, TNKS2 / Fold change vs veh, TNKS2 / RFU, ZFP14 / Fold change vs veh, ZFP14 / RFU, ACTR2 / Fold change vs veh, ACTR2 / RFU, PPP3R1 / Fold change vs veh, PPP3R1 / RFU, PIK3R1 / Fold change vs veh, PIK3R1 / RFU, HNRNPA1 / Fold change vs veh, HNRNPA1 / RFU, RNF170 / Fold change vs veh, RNF170 / RFU, ZNF28 / Fold change vs veh, ZNF28 / RFU, RNGTT / Fold change vs veh, RNGTT / RFU, OGT / Fold change vs veh, OGT / RFU, BRD1 / Fold change vs veh, BRD1 / RFU, MARS / Fold change vs veh, MARS / RFU, ZNF655 / Fold change vs veh, ZNF655 / RFU, FAHD1 / Fold change vs veh, FAHD1 / RFU, BDP1 / Fold change vs veh, BDP1 / RFU, LRRCC1 / Fold change vs veh, LRRCC1 / RFU, ARID1A / Fold change vs veh, ARID1A / RFU, ZNF146 / Fold change vs veh, ZNF146 / RFU, ZNF330 / Fold change vs veh, ZNF330 / RFU, GPN3 / Fold change vs veh, GPN3 / RFU, C9orf123 / Fold change vs veh, C9orf123 / RFU, N4BP2L2 / Fold change vs veh, N4BP2L2 / RFU, ARFIP1 / Fold change vs veh, ARFIP1 / RFU, FAM179B / Fold change vs veh, FAM179B / RFU, BCL10 / Fold change vs veh, BCL10 / RFU, UHRF1BP1L / Fold change vs veh, UHRF1BP1L / RFU, BET1 / Fold change vs veh, BET1 / RFU, CNOT2 / Fold change vs veh, CNOT2 / RFU, ZNF268 / Fold change vs veh, ZNF268 / Fold change vs veh, ZNF507 / RFU, DGCR2 / Fold change vs veh, DGCR2 / RFU, WDSUB1 / Fold change vs veh, WDSUB1 / Fold change vs veh, HSP90B1 /// MIR3652 / RFU, ADSS / Fold change vs veh, ADSS / RFU, GK / Fold change vs veh, GK / RFU, ZNF148 / Fold change vs veh, ZNF148 / RFU, TAF9 / Fold change vs veh, TAF9 / RFU, SLC1A5 / Fold change vs veh, SLC1A5 / RFU, SLMO2 / Fold change vs veh, SLMO2 / RFU, ABCC4 / Fold change vs veh, ABCC4 / RFU, LOC101060439 /// RAP1B / Fold change vs veh, LOC101060439 /// RAP1B / RFU, RFX7 / Fold change vs veh, RFX7 / RFU, GTPBP10 / Fold change vs veh, GTPBP10 / RFU, CNEP1R1 / Fold change vs veh, CNEP1R1 / RFU, BIVM-ERCC5 /// ERCC5 / Fold change vs veh, BIVM-ERCC5 /// ERCC5 / RFU, ILF3 / Fold change vs veh, ILF3 / RFU 11762660_at / Fold change /veh 11762660_at / RFU VCAN (11757783_s_at) / Fold change /veh VCAN (11757783_s_at) / RFU DDX43 (11728927_at) / Fold change /veh DDX43 (11728927_at) / RFU KRT8 (11758188_x_at) / Fold change /veh KRT8 (11758188_x_at) / RFU NKD1 (11759106_at) / Fold change /veh NKD1 (11759106_at) / RFU SRD5A1 (11742802_a_at) / Fold change /veh SRD5A1 (11742802_a_at) / RFU TPSAB1 /// TPSB2 (11721975_s_at) / Fold change /veh TPSAB1 /// TPSB2 (11721975_s_at) / RFU GSTM3 (11746129_a_at) / Fold change /veh GSTM3 (11746129_a_at) / RFU IL23R (11737362_x_at) / Fold change /veh IL23R (11737362_x_at) / RFU TMEM51 (11727254_a_at) / Fold change /veh TMEM51 (11727254_a_at) / RFU PIWIL2 (11732686_x_at) / Fold change /veh PIWIL2 (11732686_x_at) / RFU ORM1 (11744905_x_at) / Fold change /veh ORM1 (11744905_x_at) / RFU CCDC152 (11743942_at) / Fold change /veh CCDC152 (11743942_at) / RFU ECM1 (11717891_a_at) / Fold change /veh ECM1 (11717891_a_at) / RFU IL23R (11748794_a_at) / Fold change /veh IL23R (11748794_a_at) / RFU TNFAIP8L3 (11732012_x_at) / Fold change /veh TNFAIP8L3 (11732012_x_at) / RFU MBOAT4 (11741988_at) / Fold change /veh MBOAT4 (11741988_at) / RFU 11764193_at / Fold change /veh 11764193_at / RFU TMEM53 (11763286_at) / Fold change /veh TMEM53 (11763286_at) / RFU MAGEB2 (11727129_at) / Fold change /veh MAGEB2 (11727129_at) / RFU TMEM200A (11744735_a_at) / Fold change /veh TMEM200A (11744735_a_at) / RFU CCDC152 (11751479_a_at) / Fold change /veh CCDC152 (11751479_a_at) / RFU FAM211A (11726209_a_at) / Fold change /veh FAM211A (11726209_a_at) / RFU RGS16 (11746705_a_at) / Fold change /veh RGS16 (11746705_a_at) / RFU VCAN (11755009_s_at) / Fold change /veh VCAN (11755009_s_at) / RFU RHOB (11743442_s_at) / Fold change /veh RHOB (11743442_s_at) / RFU RGS16 (11720943_a_at) / Fold change /veh RGS16 (11720943_a_at) / RFU RGS16 (11720944_at) / Fold change /veh RGS16 (11720944_at) / RFU, VPS4B / Fold change vs veh, VPS4B / RFU, CREB1 / Fold change vs veh, CREB1 / RFU, DNAJC13 / Fold change vs veh, DNAJC13 / RFU, GNAQ / Fold change vs veh, GNAQ / RFU, CDK5R1 / Fold change vs veh, CDK5R1 / RFU, ZRANB3 / Fold change vs veh, ZRANB3 / RFU, CUL4A / Fold change vs veh, CUL4A / RFU, CCNY / Fold change vs veh, CCNY / RFU, UFL1 / Fold change vs veh, UFL1 / RFU, COG3 / Fold change vs veh, COG3 / RFU, DIAPH2 / Fold change vs veh, DIAPH2 / RFU, SKA2 / Fold change vs veh, SKA2 / RFU, AFF3 / Fold change vs veh, AFF3 / RFU, LMF1 / Fold change vs veh, LMF1 / RFU, IPO11 / Fold change vs veh, IPO11 / RFU, DFFB / Fold change vs veh, DFFB / RFU, FOXP1 / Fold change vs veh, FOXP1 / RFU, CARD8 / Fold change vs veh, CARD8 / RFU, STRN3 / Fold change vs veh, STRN3 / RFU, ADK / Fold change vs veh, ADK / RFU, RASSF2 / Fold change vs veh, RASSF2 / RFU, WIPF1 / Fold change vs veh, WIPF1 / RFU, LARP1B / Fold change vs veh, LARP1B / RFU, RASA1 / Fold change vs veh, RASA1 / RFU, RB1 / Fold change vs veh, RB1 / RFU, PPFIA1 / Fold change vs veh, PPFIA1 / RFU, MAT2A / Fold change vs veh, MAT2A / RFU, CCT5 / Fold change vs veh, CCT5 / RFU, WDR92 / Fold change vs veh, WDR92 / RFU, CUX1 / Fold change vs veh, CUX1 / RFU, TTC7A / Fold change vs veh, TTC7A / RFU, TMEM135 / Fold change vs veh, TMEM135 / RFU, DEPTOR / Fold change vs veh, DEPTOR / RFU, CPM / Fold change vs veh, CPM / RFU, DNAJB6 / Fold change vs veh, DNAJB6 / RFU, CACNA2D3 / Fold change vs veh, CACNA2D3 / RFU, DTX4 / Fold change vs veh, DTX4 / RFU, TFCP2 / Fold change vs veh, TFCP2 / RFU, GMCL1 /// GMCL1P1 / Fold change vs veh, GMCL1 /// GMCL1P1 / RFU, AEBP2 / Fold change vs veh, AEBP2 / RFU, SNHG1 /// SNORD22 /// SNORD25 /// SNORD26 /// SNORD27 /// SNORD28 /// SNORD29 /// SNORD31 / Fold change vs veh, SNHG1 /// SNORD22 /// SNORD25 /// SNORD26 /// SNORD27 /// SNORD28 /// SNORD29 /// SNORD31 / Fold change (Aza/veh), C12orf56 (ProbeSet 11735607_a_at) / Fold change (ACY-1035/veh), C12orf56 (ProbeSet 11735607_a_at) / Fold change (Aza/veh), FGFR1OP (ProbeSet 11751329_s_at) / Fold change (ACY-1035/veh), FGFR1OP (ProbeSet 11751329_s_at) / Fold change (Aza/veh), VPS36 (ProbeSet 11739960_a_at) / Fold change (ACY-1035/veh), VPS36 (ProbeSet 11739960_a_at) / RFU SYPL1 (11715823_x_at) / Fold change /veh SYPL1 (11715823_x_at) / RFU IGFBP7 (11715501_s_at) / Fold change /veh IGFBP7 (11715501_s_at) / RFU REEP3 (11722064_at) / Fold change /veh REEP3 (11722064_at) / RFU IGLL1 (11728026_x_at) / Fold change /veh IGLL1 (11728026_x_at): dose or concentration left out as unconfirmed
# Conditions: ProbeSet 11763166_a_at; LIST B
smiles,measurement,value
Nc1ccc(-c2cccs2)cc1NC(=O)c1ccc2c(c1)cc(C1CC1)n2CCN1CCOCC1 [ACY-1035],"Fold change vs veh, MARS",1.14
